Series [1] addresses DNA-directed RNA polymerase, mitochondrial (Homo sapiens) (UniProt O00411). Put plainly: Inhibition of human POLRMT in human MIA PaCa-2 cells assessed as mitochondria coded ubiquinone oxidoreductase core subunit 1 (ND I) transcript level at 500 nM measured after 24 hrs by RT-qPCR analysis relative to control. Set-up: scale not given: the % may be the effect or the level left. In general terms: Real-time PCR tracks product formation cycle by cycle.

For series [2], the system named is MIA PaCa-2. Description: Antiproliferative activity against human MIA PaCa-2 cells assessed as cell viability measured after 168 hrs incubation by SRB assay. The conditions noted are these: MIA PaCa-2, 168 h. Type of series: functional, cell-based. Background: In SRB staining, fixed cells bind dye roughly in proportion to their protein.
Series [3] has as its system MIA PaCa-2. Put plainly: Potency index, ratio of IMT1B IC50 to test compound […] for antiproliferative activity against human MIA PaCa-2 cells assessed as cell viability measured after 168 hrs incubation by SRB assay. The class given is functional.
Series [4] concerns MIA PaCa-2. Put plainly: In vivo antitumor activity against human MIA PaCa-2 cells xenografted in BALB/c mouse assessed as reduction in tumor weight at 100 mg/kg, iv once daily for 25 consecutive day after 2 weeks of cells injection relative to control. The class given is functional. The conditions noted are these: MIA PaCa-2, 600 h, time 25 day. On the technique in general: Xenograft models place foreign cells or tissue in a host animal.

In series [5] the test system is CAPAN-1. Description: Antiproliferative activity against human CAPAN-1 cells assessed as cell viability measured after 168 hrs incubation by SRB assay. The class given is functional, cell-based. The conditions noted are these: CAPAN-1, 168 h.
Series [6] is described as follows: Toxicity in BALB/c mouse xenografted with human MIA PaCa-2 cells assessed as pathological change in spleen at 100 mg/kg, iv once daily for 25 consecutive day after 2 weeks of cells injection by H and E staining based optical microscopic analysis. The conditions noted are these: in vivo, 336 h. Type of series: organism-based.
Series [7] is described as follows: Toxicity in BALB/c mouse xenografted with human MIA PaCa-2 cells assessed as pathological change in heart at 100 mg/kg, iv once daily for 25 consecutive day after 2 weeks of cells injection by H and E staining based optical microscopic analysis. To be noted: in vivo, 336 h. The class given is organism-based.
Series [8] can be described thus: Toxicity in BALB/c mouse xenografted with human MIA PaCa-2 cells assessed as pathological change in liver at 100 mg/kg, iv once daily for 25 consecutive day after 2 weeks of cells injection by H and E staining based optical microscopic analysis. The class given is organism-based. To be noted: in vivo, 336 h.
Series [9] is described as follows: Toxicity in BALB/c mouse xenografted with human MIA PaCa-2 cells assessed as pathological change in lung at 100 mg/kg, iv once daily for 25 consecutive day after 2 weeks of cells injection by H and E staining based optical microscopic analysis. The class given is organism-based. To be noted: in vivo, 336 h.
Series [10] concerns MIA PaCa-2. Description: Effect on mitochondrial membrane potential loss in human MIA PaCa-2 cells assessed as change in membrane potential at 0.1 to 5 uM incubated for 96 hrs by JC-1 staining based flow cytometry analysis. Type of series: functional, cell-based. The conditions noted are these: dose 0.1-5 µM.
The subject of series [11] is MIA PaCa-2. Description: Reduction in number of mitochondria in human MIA PaCa-2 cells measured after 96 hrs by Mito-Tracker Green and DAPI staining based assay. Type of series: functional, cell-based. The conditions noted are these: dose 10-1000 nM.
Series [12] concerns PANC-1. Put plainly: Antiproliferative activity against human PANC-1 cells assessed as cell viability measured after 168 hrs incubation by SRB assay. The class given is functional, cell-based. To be noted: PANC-1, 168 h.
The nature of series [13]: Toxicity in BALB/c mouse xenografted with human MIA PaCa-2 cells assessed as pathological change in kidney at 100 mg/kg, iv once daily for 25 consecutive day after 2 weeks of cells injection by H and E staining based optical microscopic analysis. Type of series: organism-based. The conditions noted are these: in vivo, 336 h.
A short description of series [14]: Antiproliferative activity against HUVEC cells assessed as cell viability measured after 168 hrs incubation by SRB assay. The conditions noted are these: human. Type of series: toxicity, cell-based.
In series [15] the test system is MIA PaCa-2. Put plainly: Induction of intracellular ROS generation in human MIA PaCa-2 cells at 0.1 to 5 uM incubated for 96 hrs by DCFH-DA staining based flow cytometry. Type of series: functional, cell-based. The conditions noted are these: dose 0.1-5 µM.
Series [16] in a line: Antiproliferative activity against human […] cells assessed as cell viability measured after 168 hrs incubation by SRB assay. Type of series: functional, cell-based.

pIC50: −log10 of the molar value. Calls of active or inactive are those of the source. No cut-off for these calls is given here. Some results are limits rather than exact numbers.

DNA-directed RNA polymerase, mitochondrial (Homo sapiens), sequence (O00411 whole entry): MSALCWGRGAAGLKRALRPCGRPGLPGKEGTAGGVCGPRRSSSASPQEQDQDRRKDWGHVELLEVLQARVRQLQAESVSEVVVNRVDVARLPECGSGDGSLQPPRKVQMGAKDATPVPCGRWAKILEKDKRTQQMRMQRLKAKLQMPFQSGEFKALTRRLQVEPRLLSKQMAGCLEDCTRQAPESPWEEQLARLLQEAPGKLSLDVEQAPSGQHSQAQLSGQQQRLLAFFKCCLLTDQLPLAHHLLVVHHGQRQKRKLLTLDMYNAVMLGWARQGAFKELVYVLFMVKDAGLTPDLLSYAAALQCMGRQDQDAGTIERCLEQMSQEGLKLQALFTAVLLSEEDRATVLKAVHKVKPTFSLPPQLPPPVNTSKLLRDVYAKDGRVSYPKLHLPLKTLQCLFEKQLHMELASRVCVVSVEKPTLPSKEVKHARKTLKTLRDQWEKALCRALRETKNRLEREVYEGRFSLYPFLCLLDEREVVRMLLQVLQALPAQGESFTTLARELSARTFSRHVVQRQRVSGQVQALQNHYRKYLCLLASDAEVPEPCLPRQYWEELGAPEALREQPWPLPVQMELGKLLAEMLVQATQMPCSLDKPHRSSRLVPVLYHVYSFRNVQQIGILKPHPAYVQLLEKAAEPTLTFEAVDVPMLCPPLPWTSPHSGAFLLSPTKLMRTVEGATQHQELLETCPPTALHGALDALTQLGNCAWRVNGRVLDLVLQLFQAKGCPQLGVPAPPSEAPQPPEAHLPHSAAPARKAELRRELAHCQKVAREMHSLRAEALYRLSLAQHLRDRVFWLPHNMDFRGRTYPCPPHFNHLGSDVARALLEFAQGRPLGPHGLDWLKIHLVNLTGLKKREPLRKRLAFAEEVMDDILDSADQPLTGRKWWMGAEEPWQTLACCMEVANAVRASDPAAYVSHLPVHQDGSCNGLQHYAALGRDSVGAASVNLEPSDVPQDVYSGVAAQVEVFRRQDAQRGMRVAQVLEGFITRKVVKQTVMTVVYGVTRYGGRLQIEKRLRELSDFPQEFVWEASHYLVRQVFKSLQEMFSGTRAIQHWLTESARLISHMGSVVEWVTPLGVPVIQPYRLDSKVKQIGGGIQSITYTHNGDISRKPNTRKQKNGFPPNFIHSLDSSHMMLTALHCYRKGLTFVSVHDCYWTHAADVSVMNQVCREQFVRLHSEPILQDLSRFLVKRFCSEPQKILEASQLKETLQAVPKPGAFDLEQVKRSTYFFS

As usually defined, the pIC50 is the negative decadic logarithm of the IC50, by convention in mol/L. Regarding `COc1cc2c(-c3ccc(F)cc3Cl)cc(=O)oc2cc1O[C@H](C)C(=O)N1CCC[C@H](C(=O)O)C1`, in series [1], the Activity came out at 67%. Moreover, in series [2], the pIC50 is below 5.30.
As to `C[C@@H](Oc1cc2oc(=O)cc(-c3ccc(F)cc3Cl)c2cc1F)C(=O)N1CCC(Cl)CC1`, the Activity in series [1] was found to be 34%. Also, the pIC50 in series [2] is 6.28.
For `C[C@@H](Oc1cc2oc(=O)cc(-c3ccc(F)cc3Cl)c2cc1F)C(=O)N1CCC(F)(F)CC1` the same measures were 28% and 6.42.
On the same counts, the results for `CC1CCN(C(=O)[C@@H](C)Oc2cc3oc(=O)cc(-c4ccc(F)cc4Cl)c3cc2F)CC1` are 31% and 6.31.
On the same counts, the results for `CCN(CC)C(=O)[C@@H](C)Oc1cc2oc(=O)cc(-c3cccc4ccccc34)c2cc1F` are 42% and 6.13.
With `C[C@@H](Oc1cc2oc(=O)cc(-c3ccc(F)cc3Cl)c2cc1F)C(=O)N1CCCCC1`, the Activity in [1] was 16%. The negative logarithm of the IC50 (pIC50) in [2] was 7.11.
On the same counts, the results for `CCN(CC)C(=O)[C@@H](C)Oc1cc2oc(=O)cc(-c3cccc(Cl)c3)c2cc1F` are 60% and 5.49.
On the same counts, the results for `C[C@@H](Oc1cc2oc(=O)cc(-c3ccc(F)cc3Cl)c2cc1F)C(=O)N(C)C` are 25% and 6.77.
In the case of `C[C@@H](Oc1cc2oc(=O)cc(-c3ccc(F)cc3Cl)c2cc1F)C(=O)N1CCC[C@H](C(=O)O)C1`, the Activity in series [1] came out at 22%. For the same compound, the negative-log IC50 (pIC50) in series [2] was 6.84.
Take `C[C@@H](Oc1cc2oc(=O)cc(-c3ccc(F)cc3Cl)c2cc1F)C(=O)N1CCCC(C#N)C1` (stereo partly drawn): in series [1], the Activity came to 26%. The negative logarithm of the IC50 (pIC50) in series [2] was 6.52.
On the same counts, the results for `CCN(CC)C(=O)[C@@H](C)Oc1cc2oc(=O)cc(-c3ccccc3Cl)c2cc1F` are 10% and 7.85.
For `CCN(CC)C(=O)[C@@H](C)Oc1cc2oc(=O)cc(-c3ccc(Cl)cc3)c2cc1F` the same measures were 55% and 5.65.
For `CCN(CC)C(=O)[C@@H](C)Oc1cc2oc(=O)cc(-c3ccccc3OC)c2cc1F` the same measures were 48% and 5.95.
In the case of `CO[C@H]1CC[C@@H](NC(=O)[C@@H](C)Oc2cc3oc(=O)cc(-c4ccc(F)cc4Cl)c3cc2F)CC1`, in [1], the Activity is 52%. Further, the negative-log IC50 (pIC50) in [2] is 5.65.
On the same counts, the results for `C[C@@H](Oc1cc(Cl)c2c(-c3ccc(F)cc3Cl)cc(=O)oc2c1)C(=O)N1CCC[C@H](C(=O)O)C1` are 85% and below 5.30.
As for `CCN(CC)C(=O)[C@@H](C)Oc1cc2oc(=O)cc(-c3ccc(F)cc3Cl)c2cc1F`, in [3], the “Ratio IC50” value is on record as 3. Further, the Activity in series [1] was determined as 13%. In [2], the negative-log IC50 (pIC50) was 7.36.
`C[C@@H](Oc1cc2oc(=O)cc(-c3ccc(F)cc3Cl)c2cc1F)C(=O)N(C)C1COC1`: the Activity in [1] was 50%. For the same compound, in series [2], the pIC50 is 5.77.
The term inhibition in vivo denotes the drop in the measured response relative to a control, in per cent. By IC50 is commonly meant the concentration that inhibits the measured activity by half. As to `C[C@@H](Oc1ccc2c(-c3ccc(F)cc3Cl)cc(=O)oc2c1)C(=O)N1CCC[C@H](C(=O)O)C1`, the inhibition in vivo at 100 mg/kg in [4] was 44.8%. Further, the pIC50 was 5.87 in [5], 5.81 in series [12], 6.80 in series [2] and 7.17 in [16]. Moreover, the Activity result in series [6] was “Non-Toxic”; in series [7], “Non-Toxic”; in series [8], “Non-Toxic”; in series [1], 23%; in [9], “Non-Toxic”; in [11], “Dose-Dependent Effect”. Moreover, in [13], the Activity entry is on record as “Non-Toxic”. The result in series [10] and in [15] was inactive. The half-maximal inhibitory concentration (IC50) at 168 h in series [14] is above 50000 nM.
`C[C@@H](Oc1cc2oc(=O)cc(-c3ccc(F)cc3Cl)c2cc1F)C(=O)N1CCCC1`: the Activity in [1] turned out to be 35%. Also, in series [2], the pIC50 is 6.34.
With `C[C@@H](Oc1cc2oc(=O)cc(-c3ccc(F)cc3Cl)c2cc1Cl)C(=O)N1CCC[C@H](C(=O)O)C1`, the Activity in [1] stood at 30%.
With `CCN(CC)C(=O)[C@@H](C)Oc1cc2oc(=O)cc(-c3ccccc3)c2cc1F`, the Activity in series [1] is 44%. Also, in [2], the pIC50 was 6.17.
For the compound `C[C@@H](Oc1cc2oc(=O)cc(-c3ccc(F)cc3Cl)c2cc1F)C(=O)N1CCC(F)CC1`, the Activity in series [1] came out at 19%. In series [2], the negative logarithm of the IC50 (pIC50) is 6.94.
`C[C@@H](Oc1cc2oc(=O)cc(-c3ccc(F)cc3Cl)c2cc1F)C(=O)N1CCC1`: the Activity in [1] turned out to be 33%. Further, the negative logarithm of the IC50 (pIC50) in series [2] is 6.31.
On the same counts, the results for `CC(C)c1cc2c(-c3ccc(F)cc3Cl)cc(=O)oc2cc1O[C@H](C)C(=O)N1CCC[C@H](C(=O)O)C1` are 46% and 5.96.
For `CCN(CC)C(=O)[C@@H](C)Oc1cc2oc(=O)cc(-c3ccccc3F)c2cc1F` the same measures were 30% and 6.40.
Take `C[C@@H](Oc1cc2oc(=O)cc(-c3ccc(F)cc3Cl)c2cc1F)C(=O)N1CCCOCC1`: in series [1], the Activity turned out to be 15%. In addition, the pIC50 in series [2] was 7.14.
On the same counts, the results for `C[C@@H](Oc1ccc2c(-c3ccc(F)cc3Cl)cc(=O)oc2c1Cl)C(=O)N1CCC[C@H](C(=O)O)C1` are 119% and below 5.30.
On the same counts, the results for `C[C@@H](Oc1cc2oc(=O)cc(-c3ccc(F)cc3Cl)c2cc1F)C(=O)NCC1CC1` are 26% and 6.53.
On the same counts, the results for `C[C@@H](Oc1cc2oc(=O)cc(-c3ccc(F)cc3Cl)c2cc1F)C(=O)NCC(F)F` are 22% and 6.86.
As for `C[C@@H](Oc1cc2oc(=O)cc(-c3ccc(F)cc3Cl)c2cc1F)C(=O)NCCC#N`, the Activity in [1] amounted to 51%. The negative logarithm of the IC50 (pIC50) in series [2] is 5.93.

The values are drawn from ChEMBL document CHEMBL5550206, “Identification of 6-Fluorine-Substituted Coumarin Analogues as POLRMT Inhibitors with High Potency and Safety for Treatment of Pancreatic Cancer” (J Med Chem, 2024).
